# pIC50: −log10 of the molar value.
# Assays:
# Influenza A virus = assay: Antiviral activity against Influenza A virus (A/Puerto Rico/8/34(H1N1)) infected in MDCK cells after 2 days using crystal violet staining by plaque assay; type: functional, organism-based; conditions: A/Puerto Rico/8/1934(H1N1), 48 h
# [1] = Antiviral activity against Influenza A virus (A/Aichi/2/1968(H3N2)) infected in MDCK cells after 2 days using crystal violet staining by plaque assay; type: functional, cell-based; conditions: 48 h
# MDCK [2] = assay: Cytotoxicity against MDCK cells at 10 times IC50 in antiviral assay after 2 days by WST-1 cell counting assay; type: cell-based, Canis lupus familiaris; conditions: dog, 48 h
# [3] = Hemolytic activity in chicken erythrocytes at 30 to 40 uM after 24 hrs by spectrophotometry; type: ADME, cell-based, Gallus gallus; conditions: erythrocyte
# [4] = Critical micelle concentration of the compound in PBS using N-phenyl-1-naphthylamine by fluorescence assay; type: ADME; conditions: buffer
# MDCK [5] = assay: Cytotoxicity against MDCK cells at 200 uM after 2 days by WST-1 cell counting assay; type: cell-based, Canis lupus familiaris; conditions: dog, 48 h
# [6] = Hemolytic activity in chicken erythrocytes at 48 uM after 24 hrs by spectrophotometry; type: ADME, cell-based, Gallus gallus, Erythrocyte; conditions: read-out: Activity
# [7] = Hemolytic activity in chicken erythrocytes at 240 uM after 24 hrs by spectrophotometry; type: ADME, cell-based, Gallus gallus, Erythrocyte; conditions: read-out: Activity
Structure (SMILES),pIC50 (Influenza A virus),pIC50 [1],Activity (MDCK [2]),Activity [3],CMC [4],Activity (MDCK [5]),"hemolysis at 24 h, 48 µM [6]","hemolysis at 24 h, 240 µM [7]"
CC(C)C[C@H](NC(=O)[C@H](CCCNC(=N)N)NC(=O)[C@H](C)N)C(=O)N1CCC[C@H]1C(=O)N[C@@H](CCCNC(=N)N)C(=O)NCCC[Si](CCCNC(=O)[C@H](CCCNC(=N)N)NC(=O)[C@@H]1CCCN1C(=O)[C@H](CC(C)C)NC(=O)[C@H](CCCNC(=N)N)NC(=O)[C@H](C)N)(CCCNC(=O)[C@H](CCCNC(=N)N)NC(=O)[C@@H]1CCCN1C(=O)[C@H](CC(C)C)NC(=O)[C@H](CCCNC(=N)N)NC(=O)[C@H](C)N)c1ccccc1,4.90,5.24,Non-toxic,Non-toxic,3.9 µM,,,
CC(C)C[C@H](NC(=O)[C@H](CCCNC(=N)N)NC(=O)[C@H](C)N)C(=O)N1CCC[C@H]1C(=O)N[C@@H](CCCNC(=N)N)C(=O)NCCC[Si](CCCNC(=O)[C@H](CCCNC(=N)N)NC(=O)[C@@H]1CCCN1C(=O)[C@H](CC(C)C)NC(=O)[C@H](CCCNC(=N)N)NC(=O)[C@H](C)N)(CCCNC(=O)[C@H](CCCNC(=N)N)NC(=O)[C@@H]1CCCN1C(=O)[C@H](CC(C)C)NC(=O)[C@H](CCCNC(=N)N)NC(=O)[C@H](C)N)CCCNC(=O)[C@H](CCCNC(=N)N)NC(=O)[C@@H]1CCCN1C(=O)[C@H](CC(C)C)NC(=O)[C@H](CCCNC(=N)N)NC(=O)[C@H](C)N,< 3.40,< 3.40,,Non-toxic,,Non-toxic,,
CC(C)C[C@H](NC(=O)[C@H](CCCNC(=N)N)NC(=O)[C@H](C)N)C(=O)N1CCC[C@H]1C(=O)N[C@@H](CCCNC(=N)N)C(=O)NCCC[Si](CCCNC(=O)[C@H](CCCNC(=N)N)NC(=O)[C@@H]1CCCN1C(=O)[C@H](CC(C)C)NC(=O)[C@H](CCCNC(=N)N)NC(=O)[C@H](C)N)(CCCNC(=O)[C@H](CCCNC(=N)N)NC(=O)[C@@H]1CCCN1C(=O)[C@H](CC(C)C)NC(=O)[C@H](CCCNC(=N)N)NC(=O)[C@H](C)N)CCC[Si](C)(C)CCC[Si](CCCNC(=O)[C@H](CCCNC(=N)N)NC(=O)[C@@H]1CCCN1C(=O)[C@H](CC(C)C)NC(=O)[C@H](CCCNC(=N)N)NC(=O)[C@H](C)N)(CCCNC(=O)[C@H](CCCNC(=N)N)NC(=O)[C@@H]1CCCN1C(=O)[C@H](CC(C)C)NC(=O)[C@H](CCCNC(=N)N)NC(=O)[C@H](C)N)CCCNC(=O)[C@H](CCCNC(=N)N)NC(=O)[C@@H]1CCCN1C(=O)[C@H](CC(C)C)NC(=O)[C@H](CCCNC(=N)N)NC(=O)[C@H](C)N,6.14,6.22,Non-toxic,,4 µM,,46%,85%

# From ChEMBL document CHEMBL3352755, “Synthesis and influenza virus inhibitory activities of carbosilane dendrimers peripherally functionalized with hemagglutinin-binding Peptide” (J Med Chem, 2014)
